# Assay results as given in patent publication US20050153412A1, “Aldehyde dehydrogenase II” (priority 2002, published 2005).
# Like-named read-outs stand apart in the source and are kept apart here.
# Columns and labels:
# Type in all cases: biochemical, Gluconobacter oxydans DSM No. 4025 (FERM BP-3812)
# [1] = biological target: T1, SNDH II (aldehyde dehydrogenase) (Ketogulonicigenium vulgare, UniProt Q402A8); test: Effect of inhibitors and metals on L-sorbosone dehydrogenase activity, photometrical DCIP assay
# T1 sequence (Q402A8 entry or part of it): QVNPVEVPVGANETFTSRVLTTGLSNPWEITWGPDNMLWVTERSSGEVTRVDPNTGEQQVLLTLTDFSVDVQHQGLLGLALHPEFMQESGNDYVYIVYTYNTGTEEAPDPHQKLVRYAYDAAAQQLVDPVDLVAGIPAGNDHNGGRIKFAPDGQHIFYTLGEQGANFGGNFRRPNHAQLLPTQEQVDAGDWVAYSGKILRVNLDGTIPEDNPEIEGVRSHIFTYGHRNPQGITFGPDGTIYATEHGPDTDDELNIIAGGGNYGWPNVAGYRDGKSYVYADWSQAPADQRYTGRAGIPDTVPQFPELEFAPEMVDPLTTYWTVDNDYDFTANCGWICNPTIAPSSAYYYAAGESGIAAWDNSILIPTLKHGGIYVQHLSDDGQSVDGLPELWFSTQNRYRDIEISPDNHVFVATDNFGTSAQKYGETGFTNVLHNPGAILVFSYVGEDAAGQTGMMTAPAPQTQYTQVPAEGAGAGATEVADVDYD
# Method: (§1) The reaction mixture consisted of 0.1 mM DCIP, 1.0 mM PMS, 50 mM potassium phosphate buffer (pH 7.0), 1.0 μM PQQ, 2 to 100 mM substrate (L-sorbosone, D-glucosone, D-glucose, etc.) and enzyme solution in a final volume of 100 μl water, said reaction mixture was prepared just before the assay. The reaction was started at 25° C. with L-sorbosone, and the enzyme activity was measured as the initial reduction rate of DCIP at 600 nm. One unit of the enzyme activity was defined as the amount of the enzyme catalyzing the reduction of 1 μmol DCIP per minute. The extinction coefficient of DCIP at pH 7.0 was taken as 14.2 mM^−1. A reference cuvette contained all the above constituents except for L-sorbosone.
# The effects of metal ions and inhibitors on the L-sorbosone dehydrogenase activity of the enzyme were examined by measuring the activity using the same assay method as described under 1b) above. Each compound solution was stirred into the basal reaction mixture and the reaction was started with the addition of the enzyme.
# Each compound was added to the reaction mixture at a concentration of 1.0 mM, with the exception that the concentrations of EDTA, NaN3 and monoiodoacetate were 5.0 mM.
# [2] = biological target: T1, SNDH II (aldehyde dehydrogenase); test: Substrate specificity of the purified enzyme, photometrical DCIP assay; conditions: for Relative activity compared with that for L-sorbosone (2 mM): at both pH 7.5 and 9.0, D-glucosone 2 mM, others 100 mM; for Product (deduced product of the oxidation of the substrate): substrates of Table 1A; for Relative activity (%): L-sorbosone and D-glucosone 2 mM, other substrates 100 mM, L-sorbosone = 100
# Method: as §1
# a) The substrate specificity of the enzyme was determined using the same enzyme assay method as described under 1b) above with the exception of using 100 mM potassium phosphate (pH 7.5) or 100 mM Tris-HCl (pH 9.0) as buffer. The relative activity of SNDH II for D-glucosone (2 mM), D-glucose (100 mM), and D-xylose (100 mM) was higher than that for L-sorbosone (2 mM) at both pH 7.5 and 9.0. However, the relative activity for L-sorbose (100 mM), D-sorbitol (100 mM), and L-gulono-γ-lactone (100 mM) was lower than 1% of that for L-sorbosone at both pH 7.5 and 9.0.
# [3] = biological target: T1, SNDH II (aldehyde dehydrogenase); test: Electron acceptor suitability for conversion of L-sorbosone; conditions: conversion of L-sorbosone to vitamin C and/or 2-KGA
# Text: This was affirmed by the failure of the enzyme to convert L-sorbosone to vitamin C and/or 2-KGA using oxygen as a possible electron acceptor. Furthermore, no oxygen consumption was detected in the reaction mixture as detected with a dissolved oxygen probe. […] However, other conventional electron acceptors can be utilized in conjunction with the enzyme of this invention. Preferred electron acceptors are phenazine methosulfate (PMS), 2,6-dichlorophenolindophenol (DCIP), ferricyanide and cytochrome c. There is no minimum amount of electron acceptors which must be present for at least some of the aldehyde substrate to be converted to its corresponding acid. However, the amount of substrate which can be oxidized depends on the amount of the particular electron acceptor and its electron accepting characteristics.
# [4] = compound at 1.0 mM, None = 100.0
# [5] = pH 7.5, 100 mM potassium phosphate
compound,measurement,setting,value
O.O.[Ca+2].[Cl-].[Cl-] [CaCl2.2H2O],Relative activity (%),[1]; [4],94.7%
O.O.O.O.O.O.[Cl-].[Cl-].[Co+2] [CoCl2.6H2O],Relative activity (%),[1]; [4],60.8%
same,Effect on the enzyme activity,"[1]; metal ions, 1.0 mM",inhibited
O=S(=O)([O-])[O-].[Cu+2] [CuSO4],Relative activity (%),[1]; [4],<1%
same,Effect on the enzyme activity,"[1]; metal ions, 1.0 mM",inhibited
O=C[C@H](O)[C@@H](O)[C@H](O)[C@H](O)CO [D-Glucose],Relative activity compared with that for L-sorbosone (2 mM),[2],higher
same,Product (deduced product of the oxidation of the substrate),[2],D-Gluconate
O=CC(=O)[C@@H](O)[C@H](O)[C@H](O)CO [D-Glucosone],Relative activity compared with that for L-sorbosone (2 mM),[2],higher
same,Relative activity (%),[2]; [5],483%
same,Product (deduced product of the oxidation of the substrate),[2],D-iso-Ascorbic acid/2-Keto-D-gluconate
OC[C@@H](O)[C@@H](O)[C@H](O)[C@@H](O)CO [D-Sorbitol],Relative activity (%),[2]; [5],<1%
same,Relative activity (%),"[2]; pH 9.0, 100 mM Tris-HCl",<1%
O=C[C@H](O)[C@@H](O)[C@H](O)CO [D-Xylose],Relative activity compared with that for L-sorbosone (2 mM),[2],higher
same,Product (deduced product of the oxidation of the substrate),[2],D-Xylonic acid
O=C(O)CN(CCN(CC(=O)O)CC(=O)O)CC(=O)O [EDTA],Relative activity (%),[1],97.9%
O=S(=O)([O-])[O-].O=S(=O)([O-])[O-].O=S(=O)([O-])[O-].[Fe+3].[Fe+3] [Fe2(SO4)3.xH2O],Relative activity (%),[1]; [4],73.2%
same,Effect on the enzyme activity,"[1]; metal ions, 1.0 mM",inhibited
O=C1O[C@H]([C@@H](O)CO)[C@H](O)[C@@H]1O [L-Gulono-γ-lactone],Relative activity (%),[2]; [5],<1%
same,Relative activity (%),"[2]; pH 9.0, 100 mM Tris-HCl",<1%
O=C(CO)[C@@H](O)[C@H](O)[C@@H](O)CO [L-Sorbose],Relative activity (%),[2]; [5],<1%
same,Relative activity (%),"[2]; pH 9.0, 100 mM Tris-HCl",<1%
O=CC(=O)[C@@H](O)[C@H](O)[C@@H](O)CO [L-Sorbosone],Relative activity (%),[2]; [5],100%
same,Relative activity (%),"[2]; pH 9.0, 100 mM Tris-HCl",100%
same,Product (deduced product of the oxidation of the substrate),[2],Vitamin C/2-KGA
[Cl-].[Cl-].[Mg+2] [MgCl2],Relative activity (%),[1]; [4],88.5%
O=C(O)CI [Monoiodoacetate],Effect on the enzyme activity,[1],strongly inhibited
same,Relative activity (%),[1],34.7%
NC(=O)c1ccc[n+]([C@H]2O[C@@H](COP(=O)([O-])OP(=O)(O)OC[C@H]3O[C@@H](n4cnc5c(N)ncnc54)[C@H](OP(=O)(O)O)[C@@H]3O)[C@H](O)[C@@H]2O)c1 [NADP],Suitability as electron acceptor,[3],not suitable electron acceptors
NC(=O)c1ccc[n+]([C@@H]2O[C@H](COP(=O)([O-])OP(=O)(O)OC[C@H]3O[C@@H](n4cnc5c(N)ncnc54)[C@H](O)[C@@H]3O)[C@@H](O)[C@H]2O)c1 [NAD],Suitability as electron acceptor,[3],not suitable electron acceptors
[N-]=[N+]=[N-].[Na+] [NaN3],Relative activity (%),"[1]; compound at 5.0 mM, None = 100.0",98.4%
O.O.O.O.O.O.O=S(=O)([O-])[O-].[Ni+2] [NiSO4.6H2O],Relative activity (%),[1]; [4],82.9%
same,Effect on the enzyme activity,"[1]; metal ions, 1.0 mM",inhibited
[Cl][Ti]([Cl])([Cl])[Cl] [TiCl4],Relative activity (%),[1]; [4],95.9%
[Cl-].[Cl-].[Zn+2] [ZnCl2],Relative activity (%),[1]; [4],64.9%
same,Effect on the enzyme activity,"[1]; metal ions, 1.0 mM",inhibited
O=O [oxygen],Suitability as electron acceptor,[3],does not work
